Laboratory results from PubChem BioAssay (NCI).
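Values below derive from 48-hour exposures of cells grown in 96-well plates, with endpoints linearly interpolated between the two concentrations bracketing the appropriate inhibition level. TGI denotes the concentration required for complete inhibition of growth.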

Key:
Experiment in all cases: NCI-60 cell line screen, 48 h
[1] = test system: RPMI-8226 leukemia
[2] = test system: LXFL 529 NSCLC
[3] = test system: SN12C renal
[4] = test system: SK-MEL-28 melanoma
[5] = test system: RXF-631 renal
[6] = test system: HCC-2998 colon
[7] = test system: HOP-62 NSCLC
[8] = test system: MOLT-4 leukemia
[9] = test system: SK-MEL-5 melanoma
[10] = test system: CCRF-CEM leukemia
[11] = test system: M14 melanoma
[12] = test system: SK-MEL-2 melanoma
[13] = test system: HL-60(TB) leukemia
[14] = test system: SF-268 CNS
[15] = test system: HCT-15 colon
[16] = test system: SNB-19 CNS
[17] = test system: COLO 205 colon
[18] = test system: UO-31 renal
[19] = test system: OVCAR-4 ovarian
[20] = test system: SR leukemia
[21] = test system: DLD-1 colon
[22] = test system: HCT-116 colon
[23] = test system: A498 renal
[24] = test system: DMS 273 small cell lung
[25] = test system: NCI-H226 lung
[26] = test system: RXF 393 renal
[27] = test system: HT29 colon
[28] = test system: KM20L2 colon
[29] = test system: U251 CNS
[30] = test system: UACC-257 melanoma
[31] = test system: M19-MEL melanoma
[32] = test system: EKVX NSCLC
[33] = test system: SF-295 CNS
[34] = test system: OVCAR-8 ovarian
[35] = test system: 786-0 renal
[36] = test system: IGROV1 ovarian
[37] = test system: XF 498 CNS
[38] = test system: A549 NSCLC
[39] = test system: NCI-H23 lung
[40] = test system: NCI-H460 lung
[41] = test system: LOX IMVI melanoma
[42] = test system: UACC-62 melanoma
[43] = test system: OVCAR-3 ovarian
[44] = test system: SW-620 colon
[45] = test system: MALME-3M melanoma
[46] = test system: DMS 114 small cell lung
[47] = test system: K-562 leukemia
[48] = test system: SF-539 CNS
[49] = test system: TK-10 renal
[50] = test system: SNB-75 CNS
[51] = test system: ACHN renal
[52] = test system: KM12 colon
[53] = test system: SNB-78 CNS
[54] = test system: CAKI-1 renal
[55] = test system: HOP-18 NSCLC
[56] = test system: OVCAR-5 ovarian
[57] = test system: NCI-H522 lung
[58] = test system: HOP-92 NSCLC

Measured: TGI

Cc1cc(=O)oc2cc(OCCCOc3ccc4c(C)cc(=O)oc4c3)ccc12
> 100 µM: [1] | [2] | [3] | [4] | [5] | [6] | [7] | [8] | [9] | [10] | [11] | [12] | [13] | [14] | [15] | [16] | [17] | [18] | [19] | [20] | [21] | [22] | [23] | [24] | [25] | [26] | [27] | [28] | [29] | [30] | [31] | [32] | [33] | [34] | [35] | [36] | [37] | [38] | [39] | [40] | [41] | [42] | [43] | [44] | [45] | [46] | [47] | [48] | [49] | [50] | [51]

C/C(CCn1[nH]c(=O)ccc1=O)=N\NC(=O)C(N)=O
> 100 µM: [2] | [52] | [3] | [4] | [6] | [7] | [53] | [9] | [54] | [11] | [12] | [55] | [13] | [14] | [15] | [16] | [17] | [18] | [19] | [21] | [22] | [23] | [24] | [25] | [26] | [27] | [28] | [29] | [30] | [31] | [32] | [33] | [34] | [35] | [36] | [37] | [38] | [39] | [40] | [41] | [42] | [43] | [44] | [45] | [56] | [46] | [47] | [48] | [49] | [57] | [50] | [58] | [51]
